Measured values published in PubChem BioAssay AID1918931 (Molecular Pharmacology Branch, DTP, NCI, 2023).

Test system: 138582-337-R-J1-PDC complex spheroid viability
Experiment: Anticancer human tumor 138582-337-R-J1-PDC patient-derived Merkel cell tumor cell line growth inhibition
Details: for IC50: curve of first compound; for viability, T/C: stronger effect = lower value
Excerpt: Multicellular complex tumor spheroid response to LSD1 Inhibitor Iadademstat in combination with a variety of drugs and investigational agents in selected tumor cell lines
The current study was undertaken to assess response to LSD1 inhibitors in combination with standard-of-care drugs and investigational agents in solid tumor complex spheroid models as well as in the K-562 leukemia. Complex spheroids include a stromal component modeled by human endothelial cells (HUVEC) and fibroblasts modeled by human mesenchymal stem cells (MSCs). The concentration ranges selected for each drug and investigational agent were based upon clinically achievable concentrations if the clinical Cmax of the agent was known.
Compounds. The drugs and investigational agents used in this study are listed on Table 1. All of the agents used, including staurosporine (NSC755774) and gemcitabine (NSC613327), were obtained from the Developmental Therapeutics Program, NCI. FDA-approved anticancer drugs are available from the NCI at http://dtp.nci.nih.gov/branches/dscb/oncology_drugset_explanation.html. Drugs and investigational agents were >95% pure by proton nuclear magnetic resonance (NMR) and liquid chromatography/mass spectrometry (LC/MS). Stock solutions were prepared at 400x in DMSO, stored at -70 degrees C, and diluted in fresh medium prior to their use. The final concentration of DMSO in cell culture wells never exceeded 0.25% (v/v). The FDA-approved anticancer drug set is available from the Developmental Therapeutics Program at https://dtp.cancer.gov/organization/dscb/obtaining/available_plates.htm. All drugs and investigational agents were tested over a range starting from a high concentration at or near the clinical Cmax and decreasing in half-log increments. If the clinical Cmax for an agent had not been determined, the highest concentration tested was 10 microM.
Cell Lines. The patient-derived cancer cell (PDC) lines: 292921-168-R-J2-PDC, K24384-001-R-PDC, and 521955-158-R2-J5-PDC pancreatic carcinomas, 556581-035-R-J1 ovarian carcinoma, 324938-238-R-J1-PDC, 855422-203-R-J1-PDC and 883617-216-R-J1-PDC urothelial bladder carcinomas, 743489-274-T-PDC renal cell carcinoma, 138582-R-J1 Merkel cell tumor, K60290-347-R-J1 and K57222-313-R-J1-PDC glioblastomas, 653999-131-R-J2-PDC, LG0703-F948-PDC, and 349418-098-R-PDC non-small cell lung carcinomas, 885512-296-R-J2-PDC, 171881-019-R-J1-PDC breast carcinomas and 186277-243-T-J2-PDC and 233499-124-R-J2-PDC colon carcinomas were obtained from the NCI Patient-Derived Models Repository (PDMR, https://pdmr.cancer.gov). The established cell lines NCI/ADR-RES (RRID:CVCL_14520 and OVCAR-5 (RRID:CVCL_1628) ovarian carcinomas, 786-O (RRID:CVCL_1051) and A498 (RRID:CVCL_A498) renal cell carcinoma, NCI-H211 (ATCC, cat. CRL-5824; RRID:CVCL_1529), NCI-H196 (ATCC, cat. CRL-5823, RRID:CVCL_1509), SW 1271 (ATCC, cat. CRL-2177, RRID:CVCL_1716) and NCI-H1876 (ATCC, cat. CRL-5902, RRID:CVCL_1503) small cell lung carcinomas, MDA-MB-231 (RRID:CVCL_0062) and MDA-MB-468 (RRID:CVCL_0419)breast carcinomas (10-12). Pooled donor human umbilical vein endothelial cells (HUVEC, Lonza, cat. CC-2519) and human mesenchymal stem cells (hMSC, Lonza, cat. PT-2501) were purchased from Lonza (Walkersville, MD).
Cell Culture. All cells were maintained in an incubator at 37 degrees C and 5% CO2 with 95% humidity. The PDC lines were cultured according to standard operating procedures established by the NCI PDMR (https://pdmr.cancer.gov). Briefly all PDCs were thawed and cultured in Matrigel-coated flasks prepared with a working solution of 1X Ham's F-12 nutrient mix, without supplementation (Invitrogen, Waltham, MA, cat. 11765054), 100 U/mL penicillin-streptomycin (Invitrogen, cat. 15140122), and 2.5% Matrigel (Corning Inc., Corning, NY, cat. 354248) for the first three passages. […]

[1] = second compound 0.1 µM, first compound 0.00316 µM
[2] = second compound 0.1 µM, first compound 0.01 µM
[3] = second compound 0.1 µM, first compound 0.0316 µM
[4] = second compound 0.1 µM, first compound 0.1 µM
[5] = second compound 0.316 µM, first compound 0.00316 µM
[6] = second compound 0.316 µM, first compound 0.01 µM
[7] = second compound 0.316 µM, first compound 0.0316 µM
[8] = second compound 0.316 µM, first compound 0.1 µM
[9] = second compound 1 µM, first compound 0.00316 µM
[10] = second compound 1 µM, first compound 0.01 µM
[11] = second compound 1 µM, first compound 0.0316 µM
[12] = second compound 1 µM, first compound 0.1 µM
[13] = second compound 3.16 µM, first compound 0.00316 µM
[14] = second compound 3.16 µM, first compound 0.01 µM
[15] = second compound 3.16 µM, first compound 0.0316 µM
[16] = second compound 3.16 µM, first compound 0.1 µM
[17] = second compound 10 µM, first compound 0.00316 µM
[18] = second compound 10 µM, first compound 0.01 µM
[19] = second compound 10 µM, first compound 0.0316 µM
[20] = second compound 10 µM, first compound 0.1 µM
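Note: spheroids exposed to agents for 7 days.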
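Throughout, for viability, T/C: 100% = DMSO vehicle control viability.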

## CC[C@@]1(O)C(=O)OCc2c1cc1n(c2=O)Cc2cc3c(CN(C)C)c(O)ccc3nc2-1 + NC1CC1c1ccc(-c2cccc(O)c2)cc1
Second compound 0.1 µM
  IC50: > 100 nM
Second compound 0.316 µM
  IC50: > 100 nM
Second compound 1 µM
  IC50: > 100 nM
Second compound 3.16 µM
  IC50: > 100 nM
Second compound 10 µM
  IC50: > 100 nM
Second compound 0.1 µM, first compound 0.000316 µM
  viability, T/C: 70.6%
Second compound 0.1 µM, first compound 0.001 µM
  viability, T/C: 71.1%
[1]
  viability, T/C: 63.5%
[2]
  viability, T/C: 80%
[3]
  viability, T/C: 68.5%
[4]
  viability, T/C: 76.8%
Second compound 0.316 µM, first compound 0.000316 µM
  viability, T/C: 80.2%
Second compound 0.316 µM, first compound 0.001 µM
  viability, T/C: 70.7%
[5]
  viability, T/C: 73.2%
[6]
  viability, T/C: 68.5%
[7]
  viability, T/C: 66.6%
[8]
  viability, T/C: 75.9%
Second compound 1 µM, first compound 0.000316 µM
  viability, T/C: 70.8%
Second compound 1 µM, first compound 0.001 µM
  viability, T/C: 70.7%
[9]
  viability, T/C: 80.2%
[10]
  viability, T/C: 71.1%
[11]
  viability, T/C: 61.3%
[12]
  viability, T/C: 74.3%
Second compound 3.16 µM, first compound 0.000316 µM
  viability, T/C: 75.6%
Second compound 3.16 µM, first compound 0.001 µM
  viability, T/C: 74.8%
[13]
  viability, T/C: 85.6%
[14]
  viability, T/C: 81.8%
[15]
  viability, T/C: 66.4%
[16]
  viability, T/C: 66.4%
Second compound 10 µM, first compound 0.000316 µM
  viability, T/C: 82.8%
Second compound 10 µM, first compound 0.001 µM
  viability, T/C: 81.2%
[17]
  viability, T/C: 100%
[18]
  viability, T/C: 90.3%
[19]
  viability, T/C: 77.3%
[20]
  viability, T/C: 67.8%

## COc1cc(C2c3cc4c(cc3C(OC3OC5COC(C)OC5C(O)C3O)C3COC(=O)C23)OCO4)cc(OC)c1O (stereo not given) + NC1CC1c1ccc(-c2cccc(O)c2)cc1
Second compound 0.1 µM
  IC50: 762 nM
Second compound 0.316 µM
  IC50: 690 nM
Second compound 1 µM
  IC50: 559 nM
Second compound 3.16 µM
  IC50: 767 nM
Second compound 10 µM
  IC50: 265 nM
Second compound 0.1 µM, first compound 0.00949 µM
  viability, T/C: 60.8%
Second compound 0.1 µM, first compound 0.03 µM
  viability, T/C: 72.3%
Second compound 0.1 µM, first compound 0.0949 µM
  viability, T/C: 63%
Second compound 0.1 µM, first compound 0.3 µM
  viability, T/C: 48.5%
Second compound 0.1 µM, first compound 0.949 µM
  viability, T/C: 52.9%
Second compound 0.1 µM, first compound 3 µM
  viability, T/C: 36.7%
Second compound 0.316 µM, first compound 0.00949 µM
  viability, T/C: 67.1%
Second compound 0.316 µM, first compound 0.03 µM
  viability, T/C: 69.8%
Second compound 0.316 µM, first compound 0.0949 µM
  viability, T/C: 63.1%
Second compound 0.316 µM, first compound 0.3 µM
  viability, T/C: 51.1%
Second compound 0.316 µM, first compound 0.949 µM
  viability, T/C: 52.3%
Second compound 0.316 µM, first compound 3 µM
  viability, T/C: 29.9%
Second compound 1 µM, first compound 0.00949 µM
  viability, T/C: 76.8%
Second compound 1 µM, first compound 0.03 µM
  viability, T/C: 75.9%
Second compound 1 µM, first compound 0.0949 µM
  viability, T/C: 60.6%
Second compound 1 µM, first compound 0.3 µM
  viability, T/C: 53.2%
Second compound 1 µM, first compound 0.949 µM
  viability, T/C: 45%
Second compound 1 µM, first compound 3 µM
  viability, T/C: 40.7%
Second compound 3.16 µM, first compound 0.00949 µM
  viability, T/C: 69.7%
Second compound 3.16 µM, first compound 0.03 µM
  viability, T/C: 75.9%
Second compound 3.16 µM, first compound 0.0949 µM
  viability, T/C: 65.9%
Second compound 3.16 µM, first compound 0.3 µM
  viability, T/C: 51.8%
Second compound 3.16 µM, first compound 0.949 µM
  viability, T/C: 53.1%
Second compound 3.16 µM, first compound 3 µM
  viability, T/C: 31.6%
Second compound 10 µM, first compound 0.00949 µM
  viability, T/C: 71.2%
Second compound 10 µM, first compound 0.03 µM
  viability, T/C: 77.3%
Second compound 10 µM, first compound 0.0949 µM
  viability, T/C: 58.4%
Second compound 10 µM, first compound 0.3 µM
  viability, T/C: 50.1%
Second compound 10 µM, first compound 0.949 µM
  viability, T/C: 41.4%
Second compound 10 µM, first compound 3 µM
  viability, T/C: 37%

## Nc1ncn(C2CC(O)C(CO)O2)c(=O)n1 (stereo not given) + NC1CC1c1ccc(-c2cccc(O)c2)cc1
Second compound 0.1 µM
  IC50: > 1000 nM
Second compound 0.316 µM
  IC50: > 1000 nM
Second compound 1 µM
  IC50: > 1000 nM
Second compound 3.16 µM
  IC50: > 1000 nM
Second compound 10 µM
  IC50: > 1000 nM
[1]
  viability, T/C: 74%
[2]
  viability, T/C: 92%
[3]
  viability, T/C: 94.5%
[4]
  viability, T/C: 85.7%
Second compound 0.1 µM, first compound 0.316 µM
  viability, T/C: 77.8%
Second compound 0.1 µM, first compound 1 µM
  viability, T/C: 75.3%
[5]
  viability, T/C: 82.3%
[6]
  viability, T/C: 98.7%
[7]
  viability, T/C: 108%
[8]
  viability, T/C: 85.7%
Second compound 0.316 µM, first compound 0.316 µM
  viability, T/C: 85.3%
Second compound 0.316 µM, first compound 1 µM
  viability, T/C: 76.6%
[9]
  viability, T/C: 75.8%
[10]
  viability, T/C: 109%
[11]
  viability, T/C: 98.1%
[12]
  viability, T/C: 88.5%
Second compound 1 µM, first compound 0.316 µM
  viability, T/C: 83%
Second compound 1 µM, first compound 1 µM
  viability, T/C: 84.9%
[13]
  viability, T/C: 67.7%
[14]
  viability, T/C: 119%
[15]
  viability, T/C: 113%
[16]
  viability, T/C: 89.6%
Second compound 3.16 µM, first compound 0.316 µM
  viability, T/C: 87.8%
Second compound 3.16 µM, first compound 1 µM
  viability, T/C: 80.1%
[17]
  viability, T/C: 85.8%
[18]
  viability, T/C: 99.2%
[19]
  viability, T/C: 118%
[20]
  viability, T/C: 106%
Second compound 10 µM, first compound 0.316 µM
  viability, T/C: 113%
Second compound 10 µM, first compound 1 µM
  viability, T/C: 88.4%
